Where two headings read alike, the source gives them in different places. Marks after values point to notes of the source that are not given here.
What was measured:
Type in all cases: in vivo, human
healthy volunteers = assay: Food effect cross-over study, healthy volunteers: safety
Method: ECG was performed as described in Example 1. The following intervals were measured: RR, PR, QRS, and QT. Heart rate (HR) was calculated as 60/(RR×1000) (with RR expressed in msec) and rounded to the nearest integer. Each individual ECG QT value was corrected for HR. The measured QT data was corrected for HR using the Fridericia method (QTcF) as per the following formulae/method (with QT, RR and QTc expressed in ms): […]
The Investigator or designee monitored the continuous ECG telemetry data and correlated the finding(s) with any other clinical findings, study participant's medical history, study participant's clinical status and laboratory data to determine the clinical importance of the finding.
Serum troponin-I concentrations were determined as described in Example 1. Abnormal and/or rising troponin values (as per Investigator's judgment and taking into account potential Baseline troponin elevation) led to the subject being clinically evaluated for possible myocardial ischemia. […] The entire clinical context would be evaluated (e.g., signs, symptoms, new ECG changes, new troponin, and CK-MB abnormalities) and correlated with any other relevant clinical findings, the subject's medical history, and laboratory data to determine the clinical significance of the findings.

[1] = Single ascending oral dose study in healthy volunteers: urinary excretion and renal clearance; conditions: for CL renal: human, plasma and urine
Method: The concentrations of Compound I in human plasma and urine were quantitated by high performance liquid chromatography with tandem mass spectrometric detection (LC MS/MS) (Biological sample analysis study report Alturas AD17-726). Plasma samples were extracted by protein precipitation with acetonitrile containing internal standard MYK-5654. The calibration curves were linear over concentration range of 0.500 to 1000 ng/mL with a lower limit of quantification (LLOQ) of 0.500 ng/mL.
The PK Population included all subjects who received Compound I. Blood samples were collected for PK assessments. The actual timing of the samples may have been modified and/or up to an additional 2 samples may have been requested by the SRC after review of the data from previous cohorts. It was important that PK sampling occurred as closely as possible to the scheduled time (±10%). Both blood and urine samples were used for PK assessments.

[2] = tested on: patients with stable HFrEF; assay: HFrEF study Part 2 (MAD Cohorts A-D): TTE pharmacodynamics by plasma concentration group; conditions: for A-wave duration, mean change from baseline (placebo-corrected) / A-wave peak, mean change from baseline (placebo-corrected) / DBP (supine), mean change from baseline (placebo-corrected) / E-wave peak, mean change from baseline (placebo-corrected) / E/A ratio, mean change from baseline (placebo-corrected) / E/e′ (lateral), mean change from baseline (placebo-corrected) / Heart rate (supine), mean change from baseline (placebo-corrected) / IVRT, mean change from baseline (placebo-corrected) / LVEDD, mean change from baseline (placebo-corrected) / LVEDVi, mean change from baseline (placebo-corrected) / LVEF, mean change from baseline (placebo-corrected) / LVESD, mean change from baseline (placebo-corrected) / LVESVi, mean change from baseline (placebo-corrected) / LVFS, mean change from baseline (placebo-corrected) / LVGCS, mean change from baseline (placebo-corrected) / LVGLS, mean change from baseline (placebo-corrected) / LVSV, mean change from baseline (placebo-corrected) / SBP (supine), mean change from baseline (placebo-corrected) / SET, mean change from baseline (placebo-corrected) / Tei index, mean change from baseline (placebo-corrected) / e′ (lateral), mean change from baseline (placebo-corrected) / s′ (lateral), mean change from baseline (placebo-corrected): LS mean difference vs placebo
Method: PD assessment was done by transthoracic echocardiography as described in Example 1 above. TTE evaluations of LVSV (derived from LVOT-VTI), LVEF, LVFS, SET, and other parameters were PD assessments at predetermined time points. The patients were on bed rest for 10 minutes before the TTEs were obtained. In Part 2 (MAD), TTEs were usually obtained before the morning close and/or at 7 hours postclose (i.e., close to the anticipated peak effect based on the PK profile from the healthy volunteer studies).
The pharmacodynamic effects of Compound I on echocardiographic markers of cardiac structure and function were analyzed by Compound I plasma concentration groups: <2000 ng/mL (lower concentration group), 2000-3500 ng/mL (medium concentration group) and ≥3500 ng/mL (higher concentration group) (Table 16) and with PK-PD scatterplots (FIGS. 9A-9C). The medium concentration group corresponds to steady-state plasma concentrations achieved with 50 mg BID (Table 17). A total of 526 echocardiograms were performed from which the PK-PD analysis was derived.

[3] = MAD cohorts, plasma concentration group 2000-<3500 ng/mL (n = 26)
[4] = MAD cohorts, plasma concentration group <2000 ng/mL (n = 30)
[5] = MAD cohorts, plasma concentration group ≥3500 ng/mL (n = 13)
[6] = higher concentration group (≥3500 ng/mL)
[7] = medium concentration group (2000-3500 ng/mL)

In the case of `Cn1cc(S(=O)(=O)[C@@](C)(F)C2CCN(C(=O)Nc3ccon3)CC2)c(C(F)F)n1` [Compound I, (R)-4-(1-((3-(difluoromethyl)-1-methyl-1H-pyrazol-4-yl)sulfonyl)-1-fluoroethyl)-N-(isoxazol-3-yl)piperidine-1-carboxamide], the troponin-I (healthy volunteers; 200 mg, fasted or fed state) was “No increase”, the “abnormal ECG results” value (healthy volunteers; 200 mg, fasted state) was 3 (30.0%) and the headache (healthy volunteers; 200 mg, fasted state) was 4 subjects. The “abnormal ECG results” value (healthy volunteers; 200 mg, fed state) was 2 (20.0%), the headache (healthy volunteers; 200 mg, fed state) was 1 subject and the tolerability (healthy volunteers; single dose of 200 mg) was “well-tolerated”. The “dose recovered in 0-48 hours urine” value ([1]; 350 mg) was “approximately 6.0%”, the “dose recovered in 0-48 hours urine” value ([1]; 525 mg) was ~8.6% and the CL renal ([1]; oral, all doses, read-out: renal clearance, mean (converted)) was 9.5 mL/min. The CL renal ([1]; po, 350 mg, 350 mg dose group, read-out: renal clearance, mean (SD) (converted)) was 5.55 mL/min, the CL renal ([1]; po, 525 mg, 525 mg dose group, read-out: renal clearance, mean (SD) (converted)) was 13.3 mL/min and the CL renal ([1]; po, all doses, read-out: renal clearance, individuals range) was 2.95 to 23.3 mL/min. The CL renal ([1]; po, all doses, read-out: renal clearance, mean (converted)) was ~9.5 mL/min, the LVEF ([2]; MAD cohorts) was “non-significant increase” and the “A-wave duration, mean change from baseline (placebo-corrected)” value (“A-wave duration, mean change” below) [2, 3] was 5.9 ms. The “A-wave peak, mean change from baseline (placebo-corrected)” value (“A-wave peak, mean change from baseline” below) [2, 3] was 6.1** cm/s, the “DBP (supine), mean change from baseline (placebo-corrected)” value (from here on “DBP (supine), mean change from baseline”) [2, 3] was −0.2 mmHg and the “E-wave peak, mean change from baseline (placebo-corrected)” value (“E-wave peak, mean change from baseline” below) [2, 3] was -2.1 cm/s. The “E/A ratio, mean change from baseline (placebo-corrected)” value (from here on “E/A ratio, mean change from baseline”) [2, 3] was −0.1**, the “E/e′ (lateral), mean change from baseline (placebo-corrected)” value (“E/e′ (lateral), mean change” for short) [2, 3] was −0.7 and the “Heart rate (supine), mean change from baseline (placebo-corrected)” value (“Heart rate (supine), mean change” below) [2, 3] was −2.0 bpm. The “IVRT, mean change from baseline (placebo-corrected)” value (“IVRT, mean change from baseline” below) [2, 3] was 10.5 ms, the “LVEDD, mean change from baseline (placebo-corrected)” value (shortened to “LVEDD, mean change from baseline”) [2, 3] was −0.9** mm and the “LVEDVi, mean change from baseline (placebo-corrected)” value (from here on “LVEDVi, mean change from baseline”) [2, 3] was −1.1 mL/m^2. For the same molecule, the “LVEF, mean change from baseline (placebo-corrected)” value (from here on “LVEF, mean change from baseline”) [2, 3] was 1.1%, the “LVESD, mean change from baseline (placebo-corrected)” value (“LVESD, mean change from baseline” below) [2, 3] was −1.3** mm and the “LVESVi, mean change from baseline (placebo-corrected)” value (“LVESVi, mean change from baseline” below) [2, 3] was −1.3 mL/m^2. The “LVFS, mean change from baseline (placebo-corrected)” value (“LVFS, mean change from baseline” for short) [2, 3] was 0.8%, the “LVGCS, mean change from baseline (placebo-corrected)” value (“LVGCS, mean change from baseline” below) [2, 3] was −2.1** % and the “LVGLS, mean change from baseline (placebo-corrected)” value (“LVGLS, mean change from baseline” below) [2, 3] was −0.9* %. The “LVSV, mean change from baseline (placebo-corrected)” value (“LVSV, mean change from baseline” below) [2, 3] was 7.8** mL, the “SBP (supine), mean change from baseline (placebo-corrected)” value (shortened to “SBP (supine), mean change from baseline”) [2, 3] was −0.8 mmHg and the “SET, mean change from baseline (placebo-corrected)” value (“SET, mean change from baseline” for short) [2, 3] was 36** ms. For the same molecule, the “Tei index, mean change from baseline (placebo-corrected)” value (shortened to “Tei index, mean change from baseline”) [2, 3] was −0.08**, the “e′ (lateral), mean change from baseline (placebo-corrected)” value [2, 3] was 0.1 and the “s′ (lateral), mean change from baseline (placebo-corrected)” value (from here on “s′ (lateral), mean change from baseline”) [2, 3] was 0.6**. For the same molecule, the “A-wave duration, mean change” value [2, 4] was 6.0 ms, the “A-wave peak, mean change from baseline” value [2, 4] was 4.1* cm/s and the “DBP (supine), mean change from baseline” value [2, 4] was −0.9 mmHg. For the same molecule, the “E-wave peak, mean change from baseline” value [2, 4] was -3.8 cm/s, the “E/A ratio, mean change from baseline” value [2, 4] was −0.1** and the “E/e′ (lateral), mean change” value [2, 4] was −0.8. The “Heart rate (supine), mean change” value [2, 4] was 0.0 bpm, the “IVRT, mean change from baseline” value [2, 4] was 2.7 ms and the “LVEDD, mean change from baseline” value [2, 4] was −0.5 mm. For the same molecule, the “LVEDVi, mean change from baseline” value [2, 4] was −1.1 mL/m^2, the “LVEF, mean change from baseline” value [2, 4] was −0.3% and the “LVESD, mean change from baseline” value [2, 4] was −0.8 mm. For the same molecule, the “LVESVi, mean change from baseline” value [2, 4] was −0.9 mL/m^2, the “LVFS, mean change from baseline” value [2, 4] was 0.5% and the “LVGCS, mean change from baseline” value [2, 4] was −0.4%. For the same molecule, the “LVGLS, mean change from baseline” value [2, 4] was −0.3%, the “LVSV, mean change from baseline” value [2, 4] was 3.1 mL and the “SBP (supine), mean change from baseline” value [2, 4] was −1.5 mmHg. For the same molecule, the “SET, mean change from baseline” value [2, 4] was 15** ms, the “Tei index, mean change from baseline” value [2, 4] was −0.05 and the “e′ (lateral), mean change from baseline (placebo-corrected)” value [2, 4] was −0.2. For the same molecule, the “s′ (lateral), mean change from baseline” value [2, 4] was 0.2, the “A-wave duration, mean change” value [2, 5] was 11.9** msec and the “A-wave peak, mean change from baseline” value [2, 5] was 4.3 cm/s. The “DBP (supine), mean change from baseline” value [2, 5] was −1.4 mmHg, the “E-wave peak, mean change from baseline” value [2, 5] was −10** cm/s and the “E/A ratio, mean change from baseline” value [2, 5] was −0.2**. The “E/e′ (lateral), mean change” value [2, 5] was 0.3, the “Heart rate (supine), mean change” value [2, 5] was −1.1 bpm and the “IVRT, mean change from baseline” value [2, 5] was 27.8** msec. The “LVEDD, mean change from baseline” value [2, 5] was −1.8** mm, the “LVEDVi, mean change from baseline” value [2, 5] was −5.2* mL/m^2 and the “LVEF, mean change from baseline” value [2, 5] was 2.3%. The “LVESD, mean change from baseline” value [2, 5] was −1.8** mm, the “LVESVi, mean change from baseline” value [2, 5] was −4.6** mL/m^2 and the “LVFS, mean change from baseline” value [2, 5] was 0.5%. The “LVGCS, mean change from baseline” value [2, 5] was −3.3** %, the “LVGLS, mean change from baseline” value [2, 5] was −1.0* % and the “LVSV, mean change from baseline” value [2, 5] was 5.7* mL. The “SBP (supine), mean change from baseline” value [2, 5] was −5.2* mmHg, the “SET, mean change from baseline” value [2, 5] was 48** ms and the “Tei index, mean change from baseline” value [2, 5] was −0.02. For the same molecule, the “e′ (lateral), mean change from baseline (placebo-corrected)” value [2, 5] was −1.0**, the “s′ (lateral), mean change from baseline” value [2, 5] was 0.3 and the SET increase ([2]; SAD and MAD cohorts) was < 50 ms. For the same molecule, the “increase in SV (forward flow)” value ([2]; SAD and MAD cohorts, exposure-related) was 8 to 9 mL, the “Myocardial performance (Tei index) improved” value ([2]; SAD and MAD cohorts, concentrations ≥2000 ng/mL) was “approximately 10%” and the “LV longitudinal as well as circumferential strain, mean placebo-corrected decrease” value [2, 6] was −3.3%. The “LVESD, mean placebo-corrected decrease” value [2, 6] was −1.8 mm, the “SET, mean placebo-corrected increase” value [2, 6] was 48 ms and the “peak E wave, decrease” value [2, 6] was -10 cm/s. The “stroke volume, mean placebo-corrected increase” value [2, 6] was 5.7 mL, the “LV longitudinal as well as circumferential strain, mean placebo-corrected decrease” value [2, 7] was −2.1% and the “LVESD, mean placebo-corrected decrease” value [2, 7] was −1.3 mm. For the same molecule, the “SET, mean placebo-corrected increase” value [2, 7] was 36 ms, the “stroke volume, mean placebo-corrected increase” value [2, 7] was 7.8 mL and the “filling pressures (E/e′)” value ([2]; medium or higher concentration group) was “No change”.
